# Assay results as given in patent publication US9505709B2, “Compositions and methods relating to ionic salts of peptides” (Thetis Pharmaceuticals LLC, priority 2014, dated 2016).
# How the values were obtained:
# [1] = Oral pharmacokinetics (oral gavage), plasma free EPA or free DHA; format: in vivo, Sprague-Dawley rats; conditions: rat
# Procedure: Experiments via Oral Gavage: Oral pharmacokinetic parameters of TP-212 (Lysyl-Lysine Bis-EPA), TP-312 (Lysyl-Lysine Bis-DHA), EPA-EE, EPA FFA and DHA FFA were determined in Sprague-Dawley rats. EPA-EE is 97% pure ethyl ester form of eicosapentaenoic acid. It is the principal polyunsaturated fatty acid in Vascepa, an Omega-3 compound approved in the U.S. for the treatment of severe hypertriglyceridemia. EPA FFA is 97% pure free fatty acid form of eicosapentaenoic acid and DHA FFA is 98% pure free fatty acid DHA. EPA FFA and DHA FFA are the two principal poly-unsaturated fatty acids in Epanova, an Omega-3 compound approved in the U.S. for the treatment of severe hypertriglyceridemia. The subject drugs were administered by oral gavage as an aqueous solution in de-ionized water to 6 Sprague-Dawley rats per group (3 males and 3 females). Rats were dosed at 40 mg/kg. Blood samples were obtained from each rat by jugular vein catheter. Samples were collected at pre-dose and at 0.25, 0.5, 1, 2, 4, 8, 12 and 18 hours post dose. Blood samples were centrifuged to separate red blood cells and the resulting plasma samples were analyzed for free EPA or free DHA. Free EPA or […] extracted from rat plasma with hexane at acidic condition without hydrolysis. Detection was by MS-MS monitoring of negative ion for EPA or DHA. Calculated pharmacokinetic values are mean values from 6 rats for each study drug.
# (§1) For all figures and tables, the data are adjusted as follows for comparative purposes. First, the actual plasma levels are baseline adjusted. Thus, for each study arm, the pre-dose level (time=0) is subtracted from the actual plasma levels at each time point, with negative values adjusted to zero. Second, these baseline adjusted values are further adjusted to be molar dose equivalent on a comparative basis among the study arms with respect to EPA or DHA payload (i.e., as if equal amounts of free fatty acid EPA or DHA are administered in each study arm).
# [2] = Intravenous injection pharmacokinetics, plasma free EPA or free DHA; format: in vivo, Sprague-Dawley rats; conditions: rat
# Procedure: Experiments via Intravenous Injection: TP-212 and TP-312 were administered by intravenous injection (20 mg/kg) to Sprague-Dawley rats (n=6/group—3 male and 3 female), and plasma was obtained from serial blood samples taken from each animal at scheduled times ([…]). Blood samples were centrifuged to separate red blood cells and the resulting plasma samples were analyzed for free EPA or free DHA. Free EPA or free DHA was extracted from rat plasma with hexane at acidic condition without hydrolysis. Detection was by MS-MS monitoring of negative ion for EPA or DHA. Calculated pharmacokinetic values are mean values from 6 rats for each study drug.
# as §1
# Balb/C mice = experiment: Ocular irritation after topical dosing to the cornea (hyperemia, squinting, discharge, lid swelling); format: in vivo; conditions: for Hyperemia: 3 μL drop in each eye four times daily for 3 days
# Procedure: In an embodiment where the ophthalmic formulation is an aqueous formulation, it has been determined in mice that certain formulations can be administered to the surface of the eye without producing irritation that would make them unsuitable for such application. Irritation parameters of TP-211-1, TP-212-1, TP-311-1 and TP-312-1 related to hyperemia, squinting, and discharge were determined in Balb/C mice. Mice were dosed topically to the cornea using a calibrated micropipette, with a 3 μL drop of treatment in each eye four times daily for 3 consecutive days at various concentrations.
# TP-211-1 is Lysyl-lysine EPA. TP-212-1 is Lysyl-lysine bis-EPA. TP-311-1 is Lysyl-lysine DHA. TP-312-1 is Lysyl-lysine bis-DHA. The study drugs were prepared using phosphate buffered saline (PBS) to reach target concentrations ranging from 0.1% to 1.0%.
# The animals were monitored for scratching at the eye or any other abnormal behavior post-dose. Ocular exams were conducted on Days 1 and 3 with use of a Micron III camera system to take high resolution videos of the right eye of each animal Clinical signs including but not limited to hyperemia, discharge, lid swelling, and squinting were evaluated by trained personnel who was masked as to group assignment. Each clinical sign was graded on a scale of 0-4, with the exception of lid swelling which was graded on a scale of 0-2. Scores were averaged and are expressed as the mean±SEM for each group. Statistical significance was assessed between the treatment arms and the vehicle group. Any significance is noted by asterisks (*=p<0.05, **=p<0.01, ***=p<0.001).
# [3] = Stability analysis by 1H NMR of samples exposed to air and light; conditions: ambient temperature
# Procedure: Stability analysis was performed using 1H NMR (400 MHz) with acetic acid-d4 at various time point (typically days 1, 14, 30 and 60) using samples exposed to air and light at ambient temperature (clear vials with no caps).
# [4] = oral gavage 40 mg/kg, molar dose equivalent, baseline adjusted
# [5] = intravenous injection 20 mg/kg, molar dose equivalent, baseline adjusted
structure (smiles),measurement,setting,value
"CC/C=C\C/C=C\C/C=C\C/C=C\C/C=C\C/C=C\CCC(=O)O.CC/C=C\C/C=C\C/C=C\C/C=C\C/C=C\C/C=C\CCC(=O)O.NCCCC[C@H](NC(=O)[C@@H](N)CCCCN)C(=O)O [Compound 4, (L,L) Lysyl-lysine bis DHA]",Tmax (free DHA),[1]; oral gavage 40 mg/kg,2 h
same,Plasma level of free DHA,"[1]; oral gavage 40 mg/kg, 0 h (pre-dose), molar dose equivalent, baseline adjusted",0 ng/mL
same,Plasma level of free DHA,"[1]; oral gavage 40 mg/kg, 0.25 h (15 min), molar dose equivalent, baseline adjusted",0 ng/mL
same,Plasma level of free DHA,"[1]; oral gavage 40 mg/kg, 0.5 h (30 min), molar dose equivalent, baseline adjusted",4600 ng/mL
same,Plasma level of free DHA,"[1]; oral gavage 40 mg/kg, 1 h (60 min), molar dose equivalent, baseline adjusted",6300 ng/mL
same,Plasma level of free DHA,"[1]; oral gavage 40 mg/kg, 2 h (120 min), molar dose equivalent, baseline adjusted",10400 ng/mL
same,Plasma level of free DHA,"[1]; oral gavage 40 mg/kg, 4 h (240 min), molar dose equivalent, baseline adjusted",5600 ng/mL
same,Plasma level of free DHA,"[1]; oral gavage 40 mg/kg, 8 h, molar dose equivalent, baseline adjusted",1400 ng/mL
same,Plasma level of free DHA,"[1]; oral gavage 40 mg/kg, 12 h, molar dose equivalent, baseline adjusted",0 ng/mL
same,Plasma level of free DHA,"[1]; oral gavage 40 mg/kg, 18 h, molar dose equivalent, baseline adjusted",0 ng/mL
same,AUC 0-1 hrs (free DHA),[1]; [4],3300 ng·h/mL
same,AUC 0-4 hrs (free DHA),[1]; [4],27600 ng·h/mL
same,AUC 0-18 hrs (free DHA),[1]; [4],44400 ng·h/mL
same,Cmax (free DHA),[1]; [4],10400 ng/mL
same,"AUC over 18 hours (free DHA), times greater than DHA-FFA",[1]; oral gavage,approximately 1.2 times
same,"Cmax (free DHA), times greater than DHA-FFA",[1]; oral gavage,approximately 3.0 times
same,Tmax (free DHA),[2]; intravenous injection 20 mg/kg,1 min
same,Plasma level of free DHA,"[2]; intravenous injection 20 mg/kg, 1 min, molar dose equivalent, baseline adjusted",66400 ng/mL
same,Plasma level of free DHA,"[2]; intravenous injection 20 mg/kg, 5 min, molar dose equivalent, baseline adjusted",15100 ng/mL
same,Plasma level of free DHA,"[2]; intravenous injection 20 mg/kg, 10 min, molar dose equivalent, baseline adjusted",16600 ng/mL
same,Plasma level of free DHA,"[2]; intravenous injection 20 mg/kg, 15 min, molar dose equivalent, baseline adjusted",17500 ng/mL
same,Plasma level of free DHA,"[2]; intravenous injection 20 mg/kg, 30 min, molar dose equivalent, baseline adjusted",16400 ng/mL
same,Plasma level of free DHA,"[2]; intravenous injection 20 mg/kg, 60 min, molar dose equivalent, baseline adjusted",12900 ng/mL
same,Plasma level of free DHA,"[2]; intravenous injection 20 mg/kg, 120 min, molar dose equivalent, baseline adjusted",8500 ng/mL
same,Plasma level of free DHA,"[2]; intravenous injection 20 mg/kg, 240 min, molar dose equivalent, baseline adjusted",7800 ng/mL
same,Plasma level of free DHA,"[2]; intravenous injection 20 mg/kg, first line (time printed as dash, pre-dose), molar dose equivalent, baseline adjusted",0 ng/mL
same,AUC 0-1 hrs (free DHA),[2]; [5],16300 ng·h/mL
same,AUC 0-4 hrs (free DHA),[2]; [5],43300 ng·h/mL
same,Cmax (free DHA),[2]; [5],66400 ng/mL
same,"AUC over 1 hour (free DHA), times greater than DHApo",[2]; intravenous vs oral gavage,~14.7 times
same,"AUC over 1 hour (free DHA), times greater than TP-312po",[2]; intravenous vs oral gavage,approximately 4.9 times
same,"AUC over 4 hours (free DHA), times greater than DHApo",[2]; intravenous vs oral gavage,~5.0 times
same,"AUC over 4 hours (free DHA), times greater than TP-312po",[2]; intravenous vs oral gavage,approximately 1.6 times
same,"Cmax (free DHA), times greater than DHApo",[2]; intravenous vs oral gavage,~19.3 times
same,"Cmax (free DHA), times greater than TP-312po",[2]; intravenous vs oral gavage,approximately 6.4 times
same,Hyperemia,Balb/C mice; 0.1% concentration in PBS,did not cause any significant increase in hyperemia after the first dose
same,Hyperemia,Balb/C mice; 0.5% concentration in PBS,some initial hyperemia after the first dose
same,Hyperemia,Balb/C mice; 1.0% concentration in PBS,some initial hyperemia after the first dose
same,Squinting,"Balb/C mice; all concentrations tested, topical to cornea",none of the concentrations caused squinting throughout the study
same,Hyperemia at last dose / final evaluation,"Balb/C mice; concentrations that showed an initial increase or all tested, last dose / final evaluation (Day 3)",remained at baseline levels of hyperemia by the last dose of the day
same,Concentration at which not irritating / well tolerated,Balb/C mice; topical to cornea four times daily for 3 days,less than 1.0%
same,Stability by NMR (amount of sample remaining relative to original sample),[3]; Day 3,1 (1 = >95%)
same,Stability by NMR (amount of sample remaining relative to original sample),[3]; Day 14,1 (1 = >95%)
same,Stability by NMR (amount of sample remaining relative to original sample),[3]; Day 30,1 (1 = >95%)
same,Stability by NMR (amount of sample remaining relative to original sample),[3]; Day 60,1 (1 = >95%)
